# Results published in paper PMC6695681, “Hydrophobic Interactions Drive Binding between Vascular Endothelial Growth Factor-A (VEGFA) and Polyphenolic Inhibitors” (Molecules, 2019).
# Several values for one entry are separate records, joined by “and”; a condition that tells them apart may be missing. Equal entries are not always repeated. Where two headings read alike, the source gives them in different places.
# Legend:
# [1] = test system: VEGF-dependent VEGFR2 activation in HUVEC cells; parameters: method as in Cerezo et al. [1]; details: ref Cerezo et al. [1], read-out: IC50 (concentration causing 50% inhibition of VEGF activation in HUVEC cells), cited from earlier work
# [2] = target: T1, VEGF-165 (Homo sapiens, UniProt P15692); assay: Surface plasmon resonance binding of polyphenols to immobilised VEGF165; details: for dissociation rate at 20 °C compared with 37 °C: 20 °C vs 37 °C, Figure 3B; for koff: read-out: dissociation rate constant kd;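 for all read-outs here: running buffer PBST with 1% DMSO, sensorgrams double referenced against a VEGF-free reference cell and blank injections, kinetics fitted to a 1:1 Langmuir binding model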
# T1 construct: purchased ReliaTech GmbH (Wolfenbüttel, Germany)
# T1 sequence (P15692 27-191 isoform P15692-4 limits assumed): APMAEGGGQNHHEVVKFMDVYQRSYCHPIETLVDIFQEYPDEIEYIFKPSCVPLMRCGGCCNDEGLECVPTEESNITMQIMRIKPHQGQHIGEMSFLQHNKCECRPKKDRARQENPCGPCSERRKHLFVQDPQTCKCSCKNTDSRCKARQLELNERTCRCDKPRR
# [3] = target: T2, VEGF (Homo sapiens, UniProt P15692); assay: SDS-page gels of VEGF treated with polyphenol, reducing and non-reducing conditions
# T2 construct: purchased ReliaTech GmbH (Wolfenbüttel, Germany)
# T2 sequence (P15692 27-191 isoform P15692-4 limits assumed): T1 sequence (P15692 27-191 isoform P15692-4 limits assumed)
# Source text: Binding occurs when intermolecular forces are established between VEGF and the phenolic ligand. […] Therefore, the interactions between VEGF and inhibitor polyphenols are likely to be non-covalent in nature. These forces could be the result of various interactions between the protein, the ligand, and the environment and are likely to be predominantly based on electrostatic (H bonding) and hydrophobic forces.
# Figure 2 SDS-page gels of control (VEGF) and treatments (VEGF and apple procyanidin fraction dp4 or EGCG under (A) reducing conditions and (B) Non-reducing conditions.
# [4] = target: T1, VEGF-165; assay: Far-UV circular dichroism of VEGF secondary structure upon binding EGCG
# Method: Circular dichroism (CD) in the far UV range (180–260 nm) was used to determine whether the secondary structure of VEGF changed upon binding EGCG. Circular dichroism spectra were measured for a fixed concentration of VEGF-165 (0.22 nmoles in 50 µL) with increasing amounts of EGCG (0, 1.36, 5.45 and 10.91 nmoles) and the spectra obtained are shown in Figure 4. Analysis of the spectra indicated the predominant features in the secondary structure of VEGF165 were random coil (unordered) and β-sheet, followed by smaller percentages of α-helix and turns. After adding EGCG at a mole ratio of 1:50 VEGF:EGCG, the VEGF secondary structure was altered with increases of 65% and 33% in α-helix and turns respectively, a reduction in the percentage of β-strands of 88%, and only a 3% reduction in the predominant unordered structure.
# Circular Dichroism (CD) spectra were recorded using a Jasco J-715 spectropolarimeter (Easton, MD, USA) over a wavelength range of 185–260 nm in PBS solvent with 1% ethanol, using a quartz demountable CD cell with a path length of 0.1 mm. Averages of three runs of the protein spectra were collected a 37 °C at a scan speed of 20 nm/min and a band width of 1.0 nm. To account for any background effect the protein in buffer alone, the EGCG molecule in buffer alone, and the buffer alone were also measured. After background correction the spectra were converted to units of delta epsilon. Dichroweb analysis server http://dichroweb.cryst.bbk.ac.uk was used to analyse and estimate on line the secondary structure contents.
# [5] = PBST, 37 °C, read-out: equilibrium constant KD
# [6] = PBST, 37 °C, read-out: association rate constant ka
# [7] = PBST, 37 °C (control runs of Table 2)
structure (smiles),measurement,setting,value
O=c1c(O)c(-c2cc(O)c(O)c(O)c2)oc2cc(O)cc(O)c12 [Myricetin],IC50,[1]; listed as myricetin,121 nM
same,IC50,[1],120 nM
same,Kd,[2]; [5],4460 nM
Oc1cc(O)c2c(c1)OC(c1ccc(O)c(O)c1)C(O)C2c1c(O)cc(O)c2c1OC(c1ccc(O)c(O)c1)C(O)C2c1c(O)cc(O)c2c1OC(c1ccc(O)c(O)c1)C(O)C2 (stereo not shown) [Procyanidin Dp3],IC50,[1],780 nM
same,dissociation rate at 20 °C compared with 37 °C,[2],higher at 20 °C than at 37 °C
same,kon,[2]; [6],2910 M⁻¹ s⁻¹
same,koff,"[2]; PBST, 37 °C",0.00093 s⁻¹
same,Kd,[2]; [5],351 nM
Oc1cc(O)c2c(c1)O[C@H](c1ccc(O)c(O)c1)[C@@H](O)C2 [(+) Catechin],IC50,[1],215000 nM
same,kon,[2]; [6],131 M⁻¹ s⁻¹
same,koff,"[2]; PBST, 37 °C",0.00399 s⁻¹
same,Kd,[2]; [5],25000 nM and 24600 nM
"O=C(O[C@@H]1Cc2c(O)cc(O)cc2O[C@@H]1c1ccc(O)c(O)c1)c1cc(O)c(O)c(O)c1 [Epicatechin gallate (ECG), Epicatechin gallate]",IC50,[1],160 nM
same,kon,[2]; [6],8240 M⁻¹ s⁻¹
same,koff,"[2]; PBST, 37 °C",0.000633 s⁻¹
same,Kd,[2]; [5],35 nM and 34.8 nM
"O=C(O[C@@H]1Cc2c(O)cc(O)cc2O[C@@H]1c1cc(O)c(O)c(O)c1)c1cc(O)c(O)c(O)c1 [Epigallocatechin gallate (EGCG), Epigallocatechin gallate]",change in migration of treated VEGF on SDS page gels,[3],no change in migration
same,IC50,[1]; listed as EGCG,88 nM
same,IC50,[1],90 nM
same,dissociation rate at 20 °C compared with 37 °C,[2],higher at 20 °C than at 37 °C
same,kd,"[2]; PBST + 0.5 M NaCl, 37 °C",0.00037 ± 4e-05 s⁻¹
same,Kd,"[2]; PBST + 0.5 M NaCl, 37 °C, read-out: KD",60 nM
same,kon,"[2]; PBST + 0.5 M NaCl, 37 °C, read-out: ka",5180 ± 92 M⁻¹ s⁻¹
same,kd,"[2]; PBST + 1 M NaCl, 37 °C",0.00033 ± 4e-05 s⁻¹
same,Kd,"[2]; PBST + 1 M NaCl, 37 °C, read-out: KD",35 nM
same,kon,"[2]; PBST + 1 M NaCl, 37 °C, read-out: ka",6500 ± 260 M⁻¹ s⁻¹
same,kd,"[2]; PBST + 1 M urea, 37 °C",0.00036 ± 2.1e-05 s⁻¹
same,Kd,"[2]; PBST + 1 M urea, 37 °C, read-out: KD",71 nM
same,kon,"[2]; PBST + 1 M urea, 37 °C, read-out: ka",5160 ± 100 M⁻¹ s⁻¹
same,kd,"[2]; PBST + 10% ethanol, 37 °C",0.0017 ± 7e-05 s⁻¹
same,Kd,"[2]; PBST + 10% ethanol, 37 °C, read-out: KD",810 nM
same,kon,"[2]; PBST + 10% ethanol, 37 °C, read-out: ka",2460 ± 60 M⁻¹ s⁻¹
same,kd,"[2]; PBST + 10 M ethylene glycol, 37 °C",0.00026 ± 5.2e-05 s⁻¹
same,Kd,"[2]; PBST + 10 M ethylene glycol, 37 °C, read-out: KD",420 nM
same,kon,"[2]; PBST + 10 M ethylene glycol, 37 °C, read-out: ka",796 ± 45 M⁻¹ s⁻¹
same,kd,"[2]; PBST + 30% ethanol, 37 °C",0.0002 ± 5e-05 s⁻¹
same,Kd,"[2]; PBST + 30% ethanol, 37 °C, read-out: KD",470 nM
same,kon,"[2]; PBST + 30% ethanol, 37 °C, read-out: ka",482 ± 21 M⁻¹ s⁻¹
same,ka,[2]; [7],5184 ± 64 M⁻¹ s⁻¹ and 6052 ± 64 M⁻¹ s⁻¹
same,kd,[2]; [7],0.00068 ± 2.9e-06 s⁻¹ and 0.00088 ± 5.2e-05 s⁻¹ and 0.00072 ± 5e-05 s⁻¹
same,Kd,"[2]; PBST, 37 °C (control runs of Table 2), read-out: KD",110 nM and 170 nM and 140 nM
same,kon,"[2]; PBST, 37 °C (control runs of Table 2), read-out: ka",6147 ± 52 M⁻¹ s⁻¹
same,kon,[2]; [6],6300 M⁻¹ s⁻¹
same,koff,"[2]; PBST, 37 °C",0.000625 s⁻¹
same,Kd,[2]; [5],112 nM
same,position of the negative band in CD far UV spectra,"[4]; EGCG mixed with VEGF, 201 nm for VEGF alone",211 nm
same,time taken by conformational changes in VEGF,[4]; after mixing with EGCG,less than 90 s
same,increase in turns of VEGF secondary structure,[4]; mole ratio 1:50 VEGF:EGCG,33%
same,increase in α-helix of VEGF secondary structure,[4]; mole ratio 1:50 VEGF:EGCG,65%
same,reduction in the percentage of β-strands of VEGF,[4]; mole ratio 1:50 VEGF:EGCG,88%
same,reduction in the predominant unordered structure of VEGF,[4]; mole ratio 1:50 VEGF:EGCG,3%
Oc1cc(O)c2c(c1)OC(c1ccc(O)c(O)c1)C(O)C2c1c(O)cc(O)c2c1OC(c1ccc(O)c(O)c1)C(O)C2c1c(O)cc(O)c2c1OC(c1ccc(O)c(O)c1)C(O)C2c1c(O)cc(O)c2c1OC(c1ccc(O)c(O)c1)C(O)C2c1c(O)cc(O)c2c1OC(c1ccc(O)c(O)c1)C(O)C2c1c(O)cc(O)c2c1OC(c1ccc(O)c(O)c1)C(O)C2c1c(O)cc(O)c2c1OC(c1ccc(O)c(O)c1)C(O)C2c1c(O)cc(O)c2c1OC(c1ccc(O)c(O)c1)C(O)C2c1c(O)cc(O)c2c1OC(c1ccc(O)c(O)c1)C(O)C2 (stereo not shown) [Procyanidin Dp9],dissociation rate at 20 °C compared with 37 °C,[2],higher at 20 °C than at 37 °C
same,Kd,[2]; [5],341 nM
O=C(O)c1cc(O)c(O)c(O)c1 [Gallic acid],kon,[2]; [6],166 M⁻¹ s⁻¹
same,koff,"[2]; PBST, 37 °C",0.000391 s⁻¹
same,Kd,[2]; [5],5520 nM
Oc1cc(O)c2c(c1)OC(c1ccc(O)c(O)c1)C(O)C2c1c(O)cc(O)c2c1OC(c1ccc(O)c(O)c1)C(O)C2 (stereo not shown) [Procyanidin Dp2],IC50,[1],52600 nM
same,kon,[2]; [6],548 M⁻¹ s⁻¹
same,koff,"[2]; PBST, 37 °C",0.001 s⁻¹
same,Kd,[2]; [5],637 nM
Oc1cc(O)c2c(c1)O[C@H](c1ccc(O)c(O)c1)[C@H](O)C2 [(-) Epicatechin],kon,[2]; [6],323 M⁻¹ s⁻¹
same,koff,"[2]; PBST, 37 °C",0.000696 s⁻¹
same,Kd,[2]; [5],2710 nM
O=c1c(O)c(-c2ccc(O)c(O)c2)oc2cc(O)c(O)c(O)c12 [Quercetagetin],IC50,[1],100 nM
same,kon,[2]; [6],858 M⁻¹ s⁻¹
same,koff,"[2]; PBST, 37 °C",0.000826 s⁻¹
same,Kd,[2]; [5],934 nM
